This passage reports IC50 results from patent US11274092B2, “Potassium channel inhibitors” (ACESION PHARMA ApS, priority 2016, dated 2022).

SMILES strings stand for the structures. Some results are limits rather than exact numbers.

The assay has as its target T1, human SK3 channel (hKCa2.3) (Homo sapiens, UniProt Q9UGI6).
T1 construct: expressed in transfected cells
As to the kind of experiment: Automated whole cell patch-clamp (QPatch 16 HT), inhibition of SK3 current. As to conditions: HEK-293 cells stably expressing hKCa2.3; symmetrical K+ solutions, free calcium 400 nM; effects normalized to N-methyl bicuculline. It is filed as cell-based. The protocol: Automated whole cell patch-clamp recordings were performed using a QPatch 16 HT system and single-hole Qplates (Biolin Scientific, Sophion, Denmark) on HEK-293 cells stably expressing the human SK3 channel (hKCa2.3). Cells were cultured and prepared for experiments using normal cell culturing procedures. A total of 4-5 million cells were used per experiment. The Qpatch automatically generates giga sealing, whole-cell formation, compound application and recording of current. hKCa2.3 currents were recorded in symmetrical K^+ solutions, with an intracellular solution consisting of in mM: KCl 108; KOH/EGTA (ethylene glycol-bis(2-aminoethylether)-N,N,N′,N′-tetraacetic acid) 31.25/10; CaCl2) 8.1; MgCl2 1.2; HEPES (2-[4-(2-hydroxyethyl)piperazin-1-yl]ethanesulfonic acid) 10; KOH 15, pH adjusted to pH=7.2 with HCl. The free calcium concentration was calculated to 400 nM. The extracellular solution consisted of in mM: KCl 150; CaCl2) 0.1; MgCl2 3; HEPES 10; Glucose 10, pH=7.4 with KOH. The cells were held at 0 mV and hKCa2.3 currents were elicited by a linear voltage ramp from […] (200 ms in duration) applied every 5th second. The compound application protocol consisted of 12 recording periods lasting from 50-200 s: 1) Baseline recordings in extracellular solution; 2) Application of the positive control N-methyl bicuculline (100 μM), which is characterized by full efficacy, fast on- and off-rate; 3-4) Wash-out; 5-9) Increasing concentrations of test compound to establish an IC50 value; 10-11) Wash-out; 12) positive control with compound NS8593 (N-[(1R)-1,2,3,4-tetrahydro-1-naphthalenyl]-1H-benzimidazol-2-amine) (1 μM). Data were sampled at 10 kHz, 4th order Bessel filter, cut-off frequency 3 kHz. Currents were compensated for run-down. Potency was quantified as the concentration needed to inhibit half of the SK channel activity and reported as an IC50 value. All effects of compounds of the present invention as tested were normalized to the observed inhibitory effect of N-methyl bicuculline.
With `O=C(C(Nc1nc2ccccc2[nH]1)c1cccc(C(F)(F)F)c1)N1CCC1` (single isomer, unassigned; (+)) [Example 34a, (+)1-(azetidin-1-yl)-2-[(1H-1,3-benzodiazol-2-yl)amino]-2-[3-(trifluoromethyl)phenyl]ethan-1-one], the IC50 is less than 10 µM.
Then `CCN(CCO)C(=O)CC(Nc1nc2c(CO)cccc2[nH]1)c1cccc(C(F)(F)F)c1` (stereo not shown) [Example 49, N-ethyl-N-(2-hydroxyethyl)-3-{[4-(hydroxymethyl)-1H-1,3-benzodiazol-2-yl]amino}-3-[3-(trifluoromethyl)phenyl]propanamide], with 10 to 100 µM.
As for `O=C(CC(Nc1nc2ccccc2[nH]1)c1cccc(C(F)(F)F)c1)N1CC[C@H](O)C1` (stereo partly drawn) [Example 15, 3-[(1H-1,3-benzodiazol-2-yl)amino]-1-[(3S)-3-hydroxypyrrolidin-1-yl]-3-[3-(trifluoromethyl)phenyl]propan-1-one], the IC50 is 10 to 100 µM.
Then `O=C(CC(Nc1nc2ccccc2[nH]1)c1cccc(C(F)(F)F)c1)NCc1ccon1` (stereo not shown) [Example 71, 3-[(1H-1,3-benzodiazol-2-yl)amino]-N-(1,2-oxazol-3-ylmethyl)-3-[3-(trifluoromethyl)phenyl]propanamide], with less than 10 µM; and `CSCCNC(=O)CC(Nc1nc2ccccc2[nH]1)c1cccc(C(F)(F)F)c1` (stereo not shown) [Example 1, 3-[(1H-1,3-benzodiazol-2-yl)amino]-N-[2-(methylsulfanyl)ethyl]-3-[3-(trifluoromethyl)phenyl]propanamide], with less than 10 µM; and `COCCNC(=O)CC(C)(Nc1nc2cc(F)ccc2[nH]1)c1cccc(C(F)(F)F)c1` (stereo not shown) [Example 91, 3-[(5-fluoro-1H-1,3-benzodiazol-2-yl)amino]-N-(2-methoxyethyl)-3-[3-(trifluoromethyl)phenyl]butanamide], with less than 10 µM.
For the molecule `CCN(CCO)C(=O)C(Nc1nc2ccccc2[nH]1)c1cccc(C(F)(F)F)c1` (stereo not shown) [Example 38, 2-[(1H-1,3-benzodiazol-2-yl)amino]-N-ethyl-N-(2-hydroxyethyl)-2-[3-(trifluoromethyl)phenyl]acetamide], the IC50 is less than 10 µM.
The same measure for `COC[C@H](NC(=O)CC(Nc1nc2ccccc2[nH]1)c1cccc(C(F)(F)F)c1)c1ccccc1` (single isomer, unassigned) [Example 69a]: less than 10 µM; for `COC(=O)CNC(=O)CC(Nc1nc2ccccc2[nH]1)c1cccc(C(F)(F)F)c1` (single isomer, unassigned; (-)) [Example 59a, (−)Methyl 2-{3-[(1H-1,3-benzodiazol-2-yl)amino]-3-[3-(trifluoromethyl)phenyl]propanamido}acetate]: less than 10 µM.
As to `CCN(CCO)C(=O)CC(Nc1nc2ccccc2[nH]1)c1cccc(C(F)(F)F)c1` (stereo not shown) [Example 41, 3-[(1H-1,3-benzodiazol-2-yl)amino]-N-ethyl-N-(2-hydroxy-ethyl)-3-[3-(trifluoromethyl)phenyl]propanamide], the IC50 is less than 10 µM.
Then `Cc1cc(C(CC(=O)NCC#N)Nc2nc3ccccc3[nH]2)cc(C)c1F` (stereo not shown) [Example 86, 3-[(1H-1,3-benzodiazol-2-yl)amino]-N-(cyanomethyl)-3-(4-fluoro-3,5-dimethylphenyl)propanamide], with less than 10 µM; and `CN(CC#N)C(=O)CC(Nc1nc2ccccc2[nH]1)c1cccc(C(F)(F)F)c1` (single isomer, unassigned; (-)) [Example 56a, (−)3-[(1H-1,3-benzodiazol-2-yl)amino]-N-(cyanomethyl)-N-methyl-3-[3-(trifluoromethyl)phenyl]propanamide], with less than 10 µM.
As to `O=C(CC(Nc1nc2ccccc2[nH]1)c1cccc(C(F)(F)F)c1)NCc1nc2ccccc2o1` (stereo not shown) [Example 72, 3-[(1H-1,3-benzodiazol-2-yl)amino]-N-(1,3-benzoxazol-2-ylmethyl)-3-[3-(trifluoromethyl)phenyl]propanamide], the IC50 was less than 10 µM.

In general, IC50 refers to the concentration that gives 50% inhibition.
